Assay results published in PMC10247784, “Physiological activation of human and mouse bitter taste receptors by bile acids” (Communications Biology, 2023).
“And” between values parts separate entries of the source, which are not always exact repeats. Equal values may be shown once.

Molecular target: T1, human TAS2R1 (Homo sapiens, UniProt Q9NYW7)
T1 construct: expressed in transfected cells; host or cells: HEK293T-Gα16gust44
T1 sequence (Q9NYW7 1-299): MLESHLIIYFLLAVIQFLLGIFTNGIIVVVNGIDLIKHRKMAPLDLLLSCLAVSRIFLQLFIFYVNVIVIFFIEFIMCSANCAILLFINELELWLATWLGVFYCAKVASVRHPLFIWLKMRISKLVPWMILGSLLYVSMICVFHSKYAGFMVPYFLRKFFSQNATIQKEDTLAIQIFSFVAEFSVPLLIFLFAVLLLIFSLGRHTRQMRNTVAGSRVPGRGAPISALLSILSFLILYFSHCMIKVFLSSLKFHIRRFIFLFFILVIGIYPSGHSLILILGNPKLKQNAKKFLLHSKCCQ
Experiment: Calcium imaging assay (FLIPR), HEK293T-Gα16gust44 cells transfected with human TAS2R1
Assay type: cell-based
How it was run: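 Bile acids from DMSO stocks are applied to dye-loaded cells one day after transient receptor transfection, and calcium-dependent fluorescence is recorded. Maximum signal is standardized to basal and normalized to buffer-only wells, with empty-vector signal subtracted.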

Structure (SMILES): C[C@H](CCC(=O)NCCS(=O)(=O)O)[C@H]1CC[C@H]2[C@@H]3CC[C@@H]4C[C@H](O)CC[C@]4(C)[C@H]3CC[C@]12C [Taurolithocholic Acid, taurolithocholic acid]
- Efficacy = maximal amplitude (ΔF/F) (TAS2R1, bile acids, mean): 0.1277
- Efficacy (maximal amplitude ΔF/F), individual data points (TAS2R1, bile acids, single replicates, listed as TLCA): 0.1258 and 0.1227 and 0.1699 and 0.1221 and 0.09796
- RLU (Time 0 s (second time grid)): 0 RLU
- RLU (Time 2 s): -8.765 RLU
- RLU (Time 4 s): 34.6882 RLU
- RLU (Time 6 s): 11.8088 RLU
- RLU (Time 8 s): 18.099 RLU
- RLU (Time 12 s): 15.1496 RLU
- RLU (Time 14 s): 13.1492 RLU
- RLU (Time 16 s): 0.9458 RLU
- RLU (Time 18 s): 9.703 RLU
- RLU (Time 18.781 s): 5.165 RLU
- RLU (Time 20.781 s): 27.2472 RLU
- RLU (Time 22.781 s): 1.644 RLU
- RLU (Time 24.781 s): -21.8293 RLU
- RLU (Time 26.781 s): 33.0454 RLU
- RLU (Time 28.781 s): 106.888 RLU
- RLU (Time 30.781 s): 183.135 RLU
- RLU (Time 32.781 s): 270.143 RLU
- RLU (Time 34.781 s): 337.182 RLU
- RLU (Time 36.781 s): 405.016 RLU
- RLU (Time 38.781 s): 448.367 RLU
- RLU (Time 40.781 s): 483.096 RLU
- RLU (Time 42.781 s): 511.157 RLU
- RLU (Time 44.781 s): 542.077 RLU
- RLU (Time 46.781 s): 572.975 RLU
- RLU (Time 48.781 s): 599.496 RLU
- RLU (Time 50.781 s): 624.238 RLU
- RLU (Time 52.781 s): 642.403 RLU
- RLU (Time 54.781 s): 649.802 RLU
- RLU (Time 56.781 s): 680.566 RLU
- RLU (Time 58.781 s): 693.048 RLU
- RLU (Time 60.781 s): 676.887 RLU
- RLU (Time 62.781 s): 735.967 RLU
- RLU (Time 64.781 s): 726.535 RLU
- RLU (Time 66.781 s): 712 RLU
- RLU (Time 68.781 s): 708.17 RLU
- RLU (Time 70.781 s): 740.519 RLU
- RLU (Time 72.781 s): 720.827 RLU
- RLU (Time 74.781 s): 715.629 RLU
- RLU (Time 76.781 s): 740.295 RLU
- RLU (Time 78.781 s): 736.469 RLU
- RLU (Time 80.781 s): 705.753 RLU
- RLU (Time 82.781 s): 719.776 RLU
- RLU (Time 84.781 s): 729.602 RLU
- RLU (Time 86.781 s): 717.016 RLU
- RLU (Time 88.781 s): 708.528 RLU
- RLU (Time 90.781 s): 685.914 RLU
- RLU (Time 92.781 s): 709.593 RLU
- RLU (Time 94.781 s): 708.426 RLU
- RLU (Time 96.781 s): 665.125 RLU
- RLU (Time 98.781 s): 639.76 RLU
- RLU (Time 100.781 s): 661.017 RLU
- RLU (Time 102.781 s): 653.391 RLU
- RLU (Time 104.781 s): 622.006 RLU
- RLU (Time 106.781 s): 616.277 RLU
- RLU (Time 108.781 s): 602.431 RLU
- RLU (Time 110.781 s): 574.352 RLU
- RLU (Time 112.781 s): 593.769 RLU
- RLU (Time 114.781 s): 553.55 RLU
- RLU (Time 116.781 s): 583.964 RLU
- RLU (Time 118.781 s): 539.304 RLU
- RLU (Time 120.781 s): 524.165 RLU
- RLU (Time 122.781 s): 518.27 RLU
- RLU (Time 124.781 s): 503.611 RLU
- RLU (Time 126.781 s): 474.132 RLU
- RLU (Time 128.781 s): 435.021 RLU
- RLU (Time 130.781 s): 439.84 RLU
- RLU (Time 132.781 s): 420.045 RLU
- RLU (Time 134.781 s): 393.577 RLU
- RLU (Time 136.781 s): 395.556 RLU
- RLU (Time 137.547 s): 402.14 RLU
- RLU (Time 143.547 s): 371.698 RLU
- RLU (Time 149.547 s): 331.65 RLU
- RLU (Time 155.547 s): 280.988 RLU
- RLU (Time 161.547 s): 237.537 RLU
- RLU (Time 167.547 s): 191.55 RLU
- RLU (Time 173.547 s): 185.568 RLU
- RLU (Time 179.547 s): 137.711 RLU
- RLU (Time 185.547 s): 105.562 RLU
- RLU (Time 191.547 s): 24.299 RLU
- RLU (Time 197.547 s): 1.672 RLU
- RLU (Time 203.547 s): -7.55 RLU
- RLU (Time 209.547 s): -39.8614 RLU
- RLU (Time 215.547 s): -81.387 RLU
- RLU (Time 221.547 s): -74.4232 RLU
- RLU (Time 227.547 s): -79.2952 RLU
- RLU (Time 233.547 s): -69.562 RLU
- RLU (Time 239.547 s): -81.6561 RLU
- RLU (Time 245.547 s): -72.3962 RLU
- RLU (Time 293.547 s): -154.558 RLU
- RLU (Time 299.547 s): -170.989 RLU
- RLU (calcium trace, sheet TAS2R1, Time 305.547 s): -184.97 RLU
- RLU (calcium trace, sheet TAS2R1, Time 311.547 s): -208.123 RLU
- RLU (calcium trace, sheet TAS2R1, Time 317.547 s): -201.311 RLU
- RLU (calcium trace, sheet TAS2R1, Time 323.547 s): -236.998 RLU
- RLU (calcium trace, sheet TAS2R1, Time 329.547 s): -230.646 RLU
- RLU (calcium trace, sheet TAS2R1, Time 335.547 s): -241.48 RLU
- RLU (calcium trace, sheet TAS2R1, Time 341.547 s): -222.174 RLU
- RLU (calcium trace, sheet TAS2R1, Time 347.547 s): -215.316 RLU
- RLU (calcium trace, sheet TAS2R1, Time 353.547 s): -228.211 RLU
- RLU (calcium trace, sheet TAS2R1, Time 359.547 s): -233.286 RLU
- EC50 (calculated where receptor saturation was reached): 1900 nM
- Activation threshold concentration TAS2R1 (lowest concentration with significantly increased fluorescence vs empty vector (p < 0.01)): 0.3 µM and 0.30 µM
